This is an account of results in patent US6103767A, “Physiologically active substances TKR1785's, process for the preparation thereof, and microbe” (Takara Shuzo Co., Ltd., priority 1996, dated 2000).

Converted amounts (≈) assume the structure as drawn.

Series [1] deals with leukotriene (LT) C4 synthase (derived from the guinea-pig lung). Description: LTC4 synthase inhibitory activity (yield of LTC4 from LTA4 by RIA). The format is biochemical. The procedure:
(§1) The inhibitory activity of TKR1785-I against phospholipase A2 (derived from porcine pancreas) and leukotriene (LT) C4 synthase (derived from the guinea-pig lung), which are enzymes related to the immune system, was determined. Phospholipase A2 activity was assayed for a hexane extract under acidic conditions by determining the [^14 C]palmitic acid released from [^14 C]phosphatidylcholine. LTC4 synthase activity was assayed by determining the yield of LTC4 from LTA4 by the RIA method.

The test system of the next series is ICR mice. Kind of series: Toxicity in mice, intraperitoneal. It is filed as in vivo. To be noted: intraperitoneally, 50 mg/kg.
Series [2] deals with Mixed lymphocyte reaction (C57BL/6 responder cells, BALB/c stimulator cells). Description: Mixed lymphocyte reaction (MLR) inhibitory activity, 3H-thymidine uptake. The format is cell-based, mice. The conditions noted are these: mouse spleen cells, 3H-thymidine uptake vs sample-free group, read-out: 50% inhibitory concentration, MLR-inhibitory activity. The procedure:
From C57BL/6 and BALB/c mice, the spleen was isolated and homogenized in a medium to provide a cell suspension. The cell suspension derived from C57BL/6 mice was passed through a nylon wool column to prepare a T cell-rich fraction (responder cells). The BALB/c-derived cell suspension was irradiated with X-rays to prepare stimulator cells. The responder cells and stimulator cells were mixed in a ratio of 1:1 and incubated in a CO2 incubator for 4 days. Following addition of 3H-thymidine, the cells were further culturen overnight. The cells were then recovered and the amount of ^3 H-thymidine uptake was determined. The samples (500, 125, 31.2, and 7.8 μg/ml solutions of dimethyl sulfoxide diluted with the medium) were respectively added in a proportion of 0.5% at mixing the responder cells with the stimulator cells to final concentrations of 25 to 0.039 μg/ml. The inhibitory activity was determined by comparison with the 3H-thymidine uptake in the sample-free group.

Series [3] relates to phospholipase A2 (derived from porcine pancreas). Description: Phospholipase A2 inhibitory activity ([14C]palmitic acid release from [14C]phosphatidylcholine). It is filed as biochemical. Here is the method: as §1
In the next series the test system is Candida kefir TIMM0301. Kind of series: Antifungal activity, liquid medium dilution method. The conditions noted are these: Candida kefir TIMM0301, YNBG medium; for MIC: read-out: Minimal inhibitory concentration. It is filed as cell-based. Here is the method: (§2) The antifungal activity of the above substance TKR1785 against various microorganisms was investigated. Using the liquid medium dilution method, the concentration which caused substantially complete Inhibition of growth was determined as minimal inhibitory concentration (μg/ml). The concentration causing a partial inhibition of growth was also determined as 50% inhibitory concentration (μg/ml) and is shown in parentheses of table 2. In the table, YNBG represents a medium containing 0.67% of yeast nitrogen base (Difco) and 1% of glucose. BHI represents a medium containing 0.5% of brain heart infusion bouillon (Nissui Pharmaceutical). YNBG-Tween represents a medium containing 0.67% of yeast nitrogen base, 0.5% bactocasitone, 2% of glucose, and 1% of Tween 40.

Series [4] deals with Candida albicans TIMM0136. Description: Antifungal activity, liquid medium dilution method. The format is cell-based. The conditions noted are these: Candida albicans TIMM0136, YNBG medium; for IC50: partial inhibition of growth, read-out: 50% inhibitory concentration (in parentheses); for MIC: substantially complete inhibition of growth, read-out: Minimal inhibitory concentration. The procedure: as §2

The subject of series [5] is Malassezia furfur TIMM2782. Kind of series: Antifungal activity, liquid medium dilution method. The format is cell-based. To be noted: Malassezia furfur TIMM2782, YNBG-Tween medium; read-out: 50% inhibitory concentration (in parentheses). The procedure: as §2
The test system of series [6] is Aspargillus fumigatus TIMM1776. Description: Antifungal activity, liquid medium dilution method. To be noted: Aspargillus fumigatus TIMM1776, BHI medium; for IC50: read-out: 50% inhibitory concentration (in parentheses); for MIC: read-out: Minimal inhibitory concentration. It is filed as cell-based. Here is the method:
as §2

The test system of series [7] is Cryptococcus neoformans TIMM0354. Description: Antifungal activity, liquid medium dilution method. The conditions noted are these: Cryptococcus neoformans TIMM0354, YNBG medium; for IC50: read-out: 50% inhibitory concentration (in parentheses); for MIC: read-out: Minimal inhibitory concentration. It is filed as cell-based. Here is the method: as §2
Series [8] in a line: Solubility in various solvents. The format is physicochemical.

Take `CCCCCCCCCCCCCC(O)CC(O)C(N)CC(=O)N[C@H](C(=O)NC(CO)CO)C(C)C` (single isomer, unassigned) [TKR1785-I]: the “Inhibition (%)” value is on record as 21% in series [1] (test concentration 30 μg/ml); 98% in [1] (test concentration 300 μg/ml); 33% in series [3] (Phospholipase A2, test concentration 10 μg/ml); 92% in series [3] (Phospholipase A2, test concentration 100 μg/ml). Also, in the series on ICR mice, the Toxic response entry is reported as “no toxic response was found”. The IC50 was determined as 0.41 µg/mL (≈ 0.792 µM) in series [2]; 6.25 µg/mL (≈ 12.1 µM) in [4]; 12.5 µg/mL (≈ 24.1 µM) in series [5]; 3.13 µg/mL (≈ 6.05 µM) in [6]; 3.13 µg/mL (≈ 6.05 µM) in [7]. In addition, the MIC was 6.25 µg/mL (≈ 12.1 µM) in the series with Candida kefir TIMM0301, 12.5 µg/mL (≈ 24.1 µM) in series [4], 25 µg/mL (≈ 48.3 µM) in [6] and 6.25 µg/mL (≈ 12.1 µM) in [7]. The “Solubility in chloroform and hexane” value in series [8] (chloroform, hexane) was “only sparingly soluble in chloroform and hexane”. Besides, in [8] (methanol, water), the “Solubility in methanol and water” value was “soluble in methanol and water”.

Consider `CCCCCCCCCCCCCC(O)CC(O)C(N)CC(=O)N[C@H](C(=O)NC(CO)CO)[C@@H](C)CC` (single isomer, unassigned) [TKR1785-II], for which, in the series with ICR mice, the Toxic response entry is reported as “no toxic response was found”. Also, the IC50 in the series with Candida kefir TIMM0301 (read-out: 50% inhibitory concentration (in parentheses)) turned out to be 6.25 µg/mL (≈ 11.8 µM); in series [4], 6.25 µg/mL (≈ 11.8 µM); in [6] it was 25 µg/mL (≈ 47 µM); in series [7] it was 6.25 µg/mL (≈ 11.8 µM). Moreover, the MIC in the series with Candida kefir TIMM0301 is 12.5 µg/mL (≈ 23.5 µM); in series [4] it was 12.5 µg/mL (≈ 23.5 µM); in series [6], 50 µg/mL (≈ 94 µM); in series [7], 12.5 µg/mL (≈ 23.5 µM).
